The values below are quoted from earlier work in patent publication US7501409B2, “Preparations for oral administration” (Mitsubishi Tanabe Pharma Corporation, priority 2000, dated 2009).

Counter-ions that a name gives are not always drawn. Like-named read-outs stand apart in the source and are kept apart here.

Broadly, the solubility is how much of the substance goes into solution per volume.

Consider `CCCc1nn(C)c2c(=O)[nH]c(-c3cc(S(=O)(=O)N4CCN(C)CC4)ccc3OCC)nc12` [sildenafil citrate], for which the solubility was 2520 µg/mL (pH 1.2) and 110 µg/mL (pH 6.8).
